Experiment [1] addresses T1, PARP1 (Homo sapiens, UniProt P09874). The experiment in a line: colorimetric PARP activity assay with recombinant human PARP enzyme; % inhibition at […] ([…] at […]). The format is biochemical.
Experiment [2] deals with T1, PARP1. The description is as above. The format is biochemical. The source holds these as a separate data set.

Among the data in publication PMC9100275, “Development of 1-(4-(Substituted)piperazin-1-yl)-2-((2-((4-methoxybenzyl)thio)pyrimidin-4-yl)oxy)ethanones That Target Poly (ADP-Ribose) Polymerase in Human Breast Cancer Cells” (Molecules, 2022) are inhibition values, retold here.

Molecules are shown by their SMILES. Read-outs that look alike come from different tables or passages of the source.

T1 sequence (P09874 2-1014): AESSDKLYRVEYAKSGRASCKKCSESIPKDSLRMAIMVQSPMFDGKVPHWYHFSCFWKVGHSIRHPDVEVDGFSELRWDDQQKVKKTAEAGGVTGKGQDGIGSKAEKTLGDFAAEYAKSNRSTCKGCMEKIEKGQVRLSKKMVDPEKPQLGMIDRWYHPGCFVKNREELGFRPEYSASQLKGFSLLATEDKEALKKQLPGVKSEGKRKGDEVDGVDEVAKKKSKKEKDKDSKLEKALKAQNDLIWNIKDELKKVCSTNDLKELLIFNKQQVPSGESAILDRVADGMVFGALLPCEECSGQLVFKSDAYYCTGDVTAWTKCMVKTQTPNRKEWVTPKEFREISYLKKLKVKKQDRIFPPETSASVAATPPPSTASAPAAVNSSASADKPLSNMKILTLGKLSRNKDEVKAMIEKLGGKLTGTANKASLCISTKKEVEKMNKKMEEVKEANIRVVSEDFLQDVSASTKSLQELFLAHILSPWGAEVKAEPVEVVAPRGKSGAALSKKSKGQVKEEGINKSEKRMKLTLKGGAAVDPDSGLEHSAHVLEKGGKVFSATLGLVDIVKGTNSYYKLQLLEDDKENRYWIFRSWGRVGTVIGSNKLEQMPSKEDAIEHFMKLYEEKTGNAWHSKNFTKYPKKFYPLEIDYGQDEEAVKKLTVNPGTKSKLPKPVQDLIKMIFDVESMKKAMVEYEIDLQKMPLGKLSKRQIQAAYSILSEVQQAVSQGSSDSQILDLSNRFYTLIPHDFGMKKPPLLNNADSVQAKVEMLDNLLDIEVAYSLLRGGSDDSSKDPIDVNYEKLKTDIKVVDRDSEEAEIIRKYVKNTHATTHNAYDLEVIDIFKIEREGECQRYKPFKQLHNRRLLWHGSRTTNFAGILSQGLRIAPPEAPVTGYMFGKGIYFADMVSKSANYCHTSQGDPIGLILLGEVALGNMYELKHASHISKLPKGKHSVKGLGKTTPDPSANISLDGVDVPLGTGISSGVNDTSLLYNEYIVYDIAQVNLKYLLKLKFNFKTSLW

Regarding `COc1ccc(CSc2nccc(OCC(=O)N3CCN(c4cccc(Cl)c4Cl)CC3)n2)cc1` [5a, 1-(4-(2,3-Dichlorophenyl)piperazin-1-yl)-2-((2-((4-methoxybenzyl)thio)pyrimidin-4-yl)oxy)ethanone], at PARP1 [1], the inhibition at 10 µM was 70.3%.

As for `COc1ccc(CSc2nccc(OCC(=O)N3CCN(c4ccc(C)cc4)CC3)n2)cc1` [5e, 2-((2-((4-Methoxybenzyl)thio)pyrimidin-4-yl)oxy)-1-(4-(p-tolyl)piperazin-1-yl)ethanone], the inhibition at 10 µM at PARP1 [2] was 53%.
